Counter-ions that a name gives are not always drawn.
What was measured:
Test in all cases: Inhibition of growth activity of tumor cell lines in vitro by MTT method
B16 = assay type: cell-based, mouse; conditions: B16, equivalent to 2 mg/ml doxorubicin, drug treatment 24 hours
Experimental: (§1) The passive solid tumor-targeted anticancer prodrug used in the test was prepared in the test example 1 (equivalent to 2 mg/ml doxorubicin).
(§2) Cell solution (with concentration of 50,000 cells/ml) growing in logarithmic growth phase cultured with RPMI 1640 culture medium was inoculated on a 96 well plate with 0.1 ml/well, and subject to corresponding drug treatment after incubation for 24 hours. After drug treatment for 24 hours, 0.02 ml 5 mg/ml 3-(4,5-dimethylthiazolyl-2)-2,5-diphenyltetrazolium bromide (MTT) was added for treatment for 4 hours, then culture solution was removed, 0.15 ml dimethylsulfoxide (DMSO) was added, and light absorption value was determined at 570 nm by a microplate reader.

2780-CP = assay type: cell-based; conditions: equivalent to 2 mg/ml doxorubicin, drug treatment 24 hours
Experimental: as §1, §2

NCI-H446 = assay type: cell-based; conditions: Homo sapiens; NCI-H446, doxorubicin concentration 2 mg/ml, drug treatment 24 hours; read-out: Inhibition rate (%)
Experimental: as §1, §2

2780-S = assay type: cell-based; conditions: equivalent to 2 mg/ml doxorubicin, drug treatment 24 hours
Experimental: as §1, §2

A549 = assay type: cell-based; conditions: Homo sapiens; A549, doxorubicin concentration 2 mg/ml, drug treatment 24 hours; read-out: Inhibition rate (%)
Experimental: as §1, §2

COc1cccc2c1C(=O)c1c(O)c3c(c(O)c1C2=O)C[C@@](O)(C(=O)CO)C[C@@H]3O[C@H]1C[C@H](N)[C@H](O)[C@H](C)O1 [doxorubicin hydrochloride]
Inhibition rate (%) (B16): 85.9% | Inhibition rate (%) (2780-CP): 49.3% | inhibition at 2000 µg/mL (NCI-H446): 63.3% | Inhibition rate (%) (2780-S): 52.8% | inhibition at 2000 µg/mL (A549): 67.6%

Reference: patent publication US20120244193A1, “PASSIVE SOLID TUMOR TARGETING ANTICANCER PRODRUG AND PREPARATION METHOD THEREOF” (priority 2009, published 2012)
